Measured values reported in patent publication US20240368154A1 (GENOSCO Inc., priority 2023, published 2024).

What was measured:
[1] = biological target: T1, Recombinant ROCK1 (amino acids 1-477) (Homo sapiens, UniProt Q13464); test: ROCK inhibition assay, LANCE Ultra TR-FRET kinase assay; format: biochemical; details: at Km of ATP (table title); method: 1 mM ATP, 50 nM ULight-CREBtide substrate, 1 hour, room temperature
T1 construct: Recombinant ROCK1 (amino acids 1-477)
Protocol: (§1) Kinase IC50 was determined through an in vitro assay based on LANCE Ultra TR-FRET (Time-Resolved Fluorescence Resonance Energy Transfer) homogeneous technologies method (Perkin Elmer). Recombinant ROCK1 (amino acids 1-477) and ROCK2 (amino acids 5-554) proteins were purchased from Carna Biosciences and SignalChem. Compound activities were measured by Envision and IC50s were calculated. The assays were performed in white LUMITRAC™ 200 96 well half-area microplates from Greiner Bio-One. The kinase reaction buffer consisted of 50 mM HEPES pH 7.5, 1 mM EGTA, 10 mM MgCl2, 2 mM DTT and 0.01% Tween-20. Kinases were incubated with 50 nM (ULight-CREBtide) substrate in the presence of 1 mM (ROCK1) or 1 mM (ROCK2) of ATP. The kinase reaction was carried out for 1 hour before addition of a stopping buffer to a final of 10 mM EDTA and 0.6 nM of LANCE Ultra Europium anti-phospho-CREB (Ser133) antibody (PerkinElmer TRF0200) in LANCE detection buffer. All assay incubations were performed at room temperature, and the microplates were sealed with polyester film during that time. The reaction was incubated for 1 hour, and the signal was read in Envision in TR-FRET mode (excitation at 320 nm and emission at 615/665 nm).
(§2) As used herein, a way to describe potency of inhibitory activity (nM) is a value of inhibitory activity at 50% (IC50).

[2] = biological target: T2, Recombinant ROCK2 (amino acids 5-554) (Homo sapiens, UniProt O75116); test: as above; format: biochemical; details: at Km of ATP (table title); method: 1 mM ATP, 50 nM ULight-CREBtide substrate, 1 hour, room temperature
T2 construct: ROCK2 (amino acids 5-554)
Protocol: as §1, §2

T1 sequence (Q13464 1-477): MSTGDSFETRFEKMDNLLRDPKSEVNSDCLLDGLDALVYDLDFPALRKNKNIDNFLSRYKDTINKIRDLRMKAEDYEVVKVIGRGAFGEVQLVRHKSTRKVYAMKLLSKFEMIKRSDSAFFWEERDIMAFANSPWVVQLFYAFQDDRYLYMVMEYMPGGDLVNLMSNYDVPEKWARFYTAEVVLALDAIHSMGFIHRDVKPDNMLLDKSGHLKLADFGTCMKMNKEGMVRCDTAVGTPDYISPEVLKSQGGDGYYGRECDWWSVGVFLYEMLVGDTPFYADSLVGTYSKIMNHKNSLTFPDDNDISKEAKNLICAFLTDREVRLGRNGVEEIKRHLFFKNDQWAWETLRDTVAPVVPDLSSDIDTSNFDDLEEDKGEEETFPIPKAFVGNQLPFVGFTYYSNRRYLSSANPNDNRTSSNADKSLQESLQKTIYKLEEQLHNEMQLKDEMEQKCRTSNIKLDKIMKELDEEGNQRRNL
T2 sequence (O75116 5-554): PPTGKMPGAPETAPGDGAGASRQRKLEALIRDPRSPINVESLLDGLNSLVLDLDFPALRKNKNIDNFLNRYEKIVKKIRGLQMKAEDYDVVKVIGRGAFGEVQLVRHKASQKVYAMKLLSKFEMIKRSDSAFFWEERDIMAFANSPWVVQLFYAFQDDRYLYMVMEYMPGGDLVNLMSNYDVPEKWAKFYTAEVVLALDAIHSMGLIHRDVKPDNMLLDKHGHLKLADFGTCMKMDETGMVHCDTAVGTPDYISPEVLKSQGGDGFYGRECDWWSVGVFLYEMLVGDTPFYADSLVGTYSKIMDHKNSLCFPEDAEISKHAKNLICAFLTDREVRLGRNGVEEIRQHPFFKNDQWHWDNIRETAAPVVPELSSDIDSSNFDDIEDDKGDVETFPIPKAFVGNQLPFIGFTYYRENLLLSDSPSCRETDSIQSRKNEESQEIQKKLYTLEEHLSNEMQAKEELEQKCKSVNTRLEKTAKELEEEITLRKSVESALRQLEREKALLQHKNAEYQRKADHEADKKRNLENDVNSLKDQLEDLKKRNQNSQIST

SMILES	IC50 [1] [nM]	IC50 [2] [nM]
COc1n[nH]cc1-c1ccc2c(C(=O)[C@H]3COc4ccc(Cl)cc4C3)cn(CCO)c2c1 (single isomer, unassigned) [Compound 2-19]	> 501	51 to 500
COc1[nH]ncc1-c1cc2c(cn1)c(C(=O)C1COc3ccc(Cl)cc3C1)cn2CCN(C)C (centres unmarked) [Compound 1-60, (6-chlorochroman-3-yl)(1-(2-(dimethylamino)ethyl)-6-(5-methoxy-1H-pyrazol-4-yl)-1H-pyrrolo[3,2-c]pyridin-3-yl)methanone metanesulfonic acid]	< 10	< 10
O=C(c1cn(CCO)c2nc(-c3c[nH]nc3Cl)ccc12)C1COc2ccc(Cl)cc2C1 (centres unmarked) [Compound 1-4]	11 to 50	< 10
COc1n[nH]cc1-c1ccc2c(C(=O)C3COc4ccc(Cl)cc4C3)nn(C[C@H](C)O)c2c1 (some centres unmarked) [Compound 2-35]	51 to 500	11 to 50
COc1n[nH]cc1-c1ccc2c(C(=O)c3coc4ccccc34)nn(CCO)c2c1 [Compound 2-32]	> 501	51 to 500
Cc1n[nH]cc1-c1ccc2c(C(=O)C3COc4ccc(F)cc4C3)cn(CCO)c2n1 (centres unmarked) [Compound 1-15]	< 10	< 10
COc1n[nH]cc1-c1ccc2c(C(=O)C3COc4ccc(Cl)cc4C3)nn(C[C@@H](C)O)c2c1 (some centres unmarked) [Compound 2-34]	51 to 500	11 to 50
COCCn1nc(C(=O)C2COc3ccccc3C2)c2ccc(-c3cn[nH]c3)cc21 (centres unmarked) [Compound 2-24, Chroman-3-yl-[1-(2-methoxyethyl)-6-(1H-pyrazol-4-yl)indazol-3-yl]methanone]	11 to 50	< 10
O=C(c1cn(CCO)c2cc(-c3c[nH]nc3Cl)ncc12)C1COc2ccc(F)cc2C1 (centres unmarked) [Compound 1-13]	11 to 50	< 10
O=C(c1cn(CCO)c2cc(-c3cn[nH]c3)ccc12)C1COc2ccc(Cl)cc2O1 (centres unmarked) [Compound 2-13]	51 to 500	11 to 50
O=C(c1nn(CCO)c2cc(-c3cn[nH]c3)ccc12)C1COc2ccc(F)cc2C1 (centres unmarked) [Compound 3-1, (6-fluorochroman-3-yl)(1-(2-hydroxyethyl)-6-(1H-pyrazol-4-yl)-1H-indazol-3-yl)methanone]	11 to 50	< 10
CC(C)(O)Cn1cc(C(=O)[C@@H]2COc3ccc(Cl)cc3C2)c2cnc(-c3c[nH]nc3Cl)cc21 [Compound 1-32]	11 to 50	< 10
C[C@@H](O)Cn1cc(C(=O)[C@@H]2COc3ccc(F)cc3C2)c2cnc(-c3cn[nH]c3F)nc21 [Compound 1-49]	< 10	< 10
O=C(c1cn(CCO)c2nc(-c3c[nH]nc3Cl)ccc12)C1COc2ccc(F)cc2C1 (centres unmarked) [Compound 1-3]	11 to 50	< 10
CC(C)(O)Cn1cc(C(=O)C2COc3ccc(Cl)cc3C2)c2cnc(-c3c[nH]nc3Cl)cc21 (centres unmarked) [Compound 1-16]	11 to 50	< 10
COCCn1nc(C(=O)[C@@H]2COc3ccccc3O2)c2ccc(-c3cn[nH]c3)cc21 [Compound 2-25]	11 to 50	11 to 50
COc1n[nH]cc1-c1ccc2c(C(=O)[C@@H]3COc4ccc(Cl)cc4C3)cn(CCO)c2c1 (single isomer, unassigned) [Compound 2-18]	11 to 50	< 10
COc1ccc2c(c1)CC(C(=O)c1cn(CCO)c3nc(-c4c[nH]nc4Cl)ccc13)CO2 (centres unmarked) [Compound 1-22]	< 10	< 10
COc1n[nH]cc1-c1ccc2c(C(=O)C3COc4ccc(F)cc4C3)cn(CCO)c2c1 (racemic) [Compound 2-20]	11 to 50	11 to 50
COc1n[nH]cc1-c1ccc2c(C(=O)C3COc4ccc(F)cc4C3)nn(CCO)c2c1 (centres unmarked) [Compound 2-27]	11 to 50	< 10
O=C(c1cn(CCO)c2cc(-c3cn[nH]c3)ccc12)C1COc2ccccc2C1 (centres unmarked) [Compound 2-23]	11 to 50	11 to 50
CC(O)Cn1cc(C(=O)[C@@H]2COc3ccc(Cl)cc3C2)c2ccc(-c3c[nH]nc3Cl)cc21 (some centres unmarked) [Compound 1-40]	11 to 50	< 10
